Data as given in US10077237B2 (Sanofi, priority 2013, dated 2018).
Values joined by “and” are separate entries in the source; they are usually repeats but may differ in a detail not shown here. Equal entries are not always repeated. Structures can show the parent of a compound that is named as a salt.

Target: T1, recombinant human AMPK complex, containing α2β1γ2 (Homo sapiens, UniProt P54646+Q9Y478)
T1 construct: hsAMPKα2-552-His, hsAMPKβ1-2-270 and hsAMPKγ-2-569 respectively; hsAMPKβ1-2-270; hsAMPKγ-2-569; His (C); made in house; host or cells: Spodoptera frugiperda Sf21 (baculovirus)
T1 sequence (P54646 2-552): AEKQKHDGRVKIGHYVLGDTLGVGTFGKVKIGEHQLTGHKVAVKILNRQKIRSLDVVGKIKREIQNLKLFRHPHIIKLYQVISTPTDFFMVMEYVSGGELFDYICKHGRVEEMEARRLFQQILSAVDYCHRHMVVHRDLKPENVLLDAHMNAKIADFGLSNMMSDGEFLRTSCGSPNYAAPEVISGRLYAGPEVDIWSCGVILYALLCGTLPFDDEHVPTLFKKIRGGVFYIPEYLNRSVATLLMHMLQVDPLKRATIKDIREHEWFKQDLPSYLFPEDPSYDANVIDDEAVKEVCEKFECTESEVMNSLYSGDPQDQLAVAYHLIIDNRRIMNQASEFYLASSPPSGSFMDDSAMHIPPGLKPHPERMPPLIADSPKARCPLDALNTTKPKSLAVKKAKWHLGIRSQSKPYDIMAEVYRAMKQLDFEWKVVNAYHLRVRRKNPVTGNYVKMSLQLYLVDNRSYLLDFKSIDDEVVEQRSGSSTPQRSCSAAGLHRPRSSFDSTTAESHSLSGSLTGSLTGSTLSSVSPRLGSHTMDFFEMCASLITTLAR
T1 sequence (Q9Y478 2-270): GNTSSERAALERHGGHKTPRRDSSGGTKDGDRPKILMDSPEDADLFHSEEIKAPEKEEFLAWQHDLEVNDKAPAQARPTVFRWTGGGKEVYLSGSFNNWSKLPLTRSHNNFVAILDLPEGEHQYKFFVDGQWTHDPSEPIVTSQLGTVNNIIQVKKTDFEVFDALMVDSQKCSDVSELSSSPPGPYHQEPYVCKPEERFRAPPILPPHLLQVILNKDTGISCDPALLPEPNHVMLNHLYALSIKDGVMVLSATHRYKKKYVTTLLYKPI
T1 sequence (Q9UGJ0 2-569 partner limits assumed): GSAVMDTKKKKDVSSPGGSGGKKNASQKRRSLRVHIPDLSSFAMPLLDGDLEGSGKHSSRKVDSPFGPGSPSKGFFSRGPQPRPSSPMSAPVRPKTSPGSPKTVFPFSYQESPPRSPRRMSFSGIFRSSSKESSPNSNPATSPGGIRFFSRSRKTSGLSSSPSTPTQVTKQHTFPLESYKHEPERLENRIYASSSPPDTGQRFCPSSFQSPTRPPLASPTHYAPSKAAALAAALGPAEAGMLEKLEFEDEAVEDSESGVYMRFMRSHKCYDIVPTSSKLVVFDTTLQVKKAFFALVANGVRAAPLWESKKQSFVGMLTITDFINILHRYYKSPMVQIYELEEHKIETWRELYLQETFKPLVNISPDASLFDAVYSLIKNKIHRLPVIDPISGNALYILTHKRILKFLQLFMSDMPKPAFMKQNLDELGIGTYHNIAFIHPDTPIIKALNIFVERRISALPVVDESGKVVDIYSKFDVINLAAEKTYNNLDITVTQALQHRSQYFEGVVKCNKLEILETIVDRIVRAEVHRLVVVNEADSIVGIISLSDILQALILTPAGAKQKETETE
Experiment: AMPK in vitro activation assay (HTRF)
Assay type: biochemical
Conditions: for EC50: HTRF, recombinant human α2β1γ2 AMPK, 200 μM ATP, biotinylated ACC-CREBp peptide, repeat determinations on separate lines; for Emax: potentiation of AMPK activity as percent over the basal signal (without compound)
Protocol: The recombinant human AMPK complex, containing α2β1γ2 was obtained from baculovirus expression system and generated by cotransfection in Spodoptera frugiperda 21 (Sf21). […] were produced in serum free medium (SF900 II, Invitrogen) for 82 hours after a triple infection at a multiplicity of infection (M.O.I.) of 0.05, 0.06 and 0.045 for hsAMPKα2-552-His, hsAMPKβ1-2-270 and hsAMPKγ-2-569 respectively. Cells were harvested by centrifugation at 1,000×g for 10 minutes at 4° C. and stored at −80° C. The insect cell pellet from 8 liters of culture was resuspended and homogenized in 580 ml of lysis buffer (20 mM Hepes pH 7.5, 150 mM NaCl, 10 mM imidazole, 50 mM NaF, 10% Glycerol and supplemented with EDTA free proteases inhibitor cocktail Roche). The AMPK complex was partially purified using an affinity chromatography under a Ni-NTA Agarose column equilibrated in the lysis buffer and eluted with a gradient (0 to 400 mM) of Imidazol.
A homogeneous time-resolved fluorescence (HTRF) assay was used (Li et al, Anal. Biochem. (2003) 321, 151-156) to identify compounds with stimulating activity for the recombinant human AMPK. Enzyme reaction was performed into a 96-well microtiter plate. First, 20 μL of test compounds in 0.5% DMSO were dispensed followed by 10 μL of protein in 50 mM HEPES buffer at pH 7.0, 100 mM NaCl, 5 mM MgCl2, 0.01% BSA, 0.8 mM DTT. After, 30 min incubation at room temperature, the reaction was initiated by the addition of 10 μL of a solution containing 200 μM of ATP as donor substrate, 2 μM or 0.08 μM of biotinylated ACC-CREBp peptide (PolyPeptide) as acceptor. Plates were then incubated 45 min at 37° C. The reaction was terminated by the addition of 40 μl detection mixture containing Eu^3+ cryptate-conjugated anti-pS^133-CREB antibody and streptavidine-XL665 (CisBio). Plates were further incubated for 2 h30 at room temperature. The fluorescence signal was measured using an Envision multireader (Perkin Elmer). The non-specific signal was obtained without substrates. Potentiation of AMPK activity was expressed as a percent over the basal signal (without compound) from which an EC50 value was determined.
The EC50 of a graded dose response curve represents the concentration of a compound where 50% of its maximal effect is observed.

| SMILES | EC50 | Emax |
| --- | --- | --- |
| COc1ccc(C(O)=C2C(=O)Nc3cc(Cl)c(-c4ccc(-c5cccc(OC)c5O)cc4)cc32)cc1F [Compound 84, 6-chloro-3-[(3-fluoro-4-methoxy-phenyl)hydroxy-methylene]-5-[4-(2-hydroxy-3-methoxy-phenyl)phenyl]indolin-2-one] | 0.6 nM and 1 nM | 170% |
| COc1cc(C(O)=C2C(=O)Nc3cc(Cl)c(-c4ccc(N(C)C)cc4)cc32)on1 [Compound 127, 6-chloro-5-(4-dimethylaminophenyl)-3-[hydroxy-(3-methoxyisoxazol-5-yl)methylene]indolin-2-one] | – | 296% |
| COc1cc(C(O)=C2C(=O)Nc3cc(Cl)c(-c4ccc(OCCCO)cc4)cc32)on1 [Compound 129, 6-chloro-3-[hydroxy-(3-methoxyisoxazol-5-yl)methylene]-5-[4-(3-hydroxypropoxy)phenyl]indolin-2-one] | 20 nM and 10 nM | – |
| COCCOc1cc(C(O)=C2C(=O)Nc3cc(Cl)c(-c4ccc(-c5cccc(OC)c5O)cc4)cc32)on1 [Compound 79, 6-chloro-3-[hydroxy-[3-(2-methoxyethoxy)isoxazol-5-yl]methylene]-5-[4-(2-hydroxy-3-methoxy-phenyl)phenyl]indolin-2-one] | 38 nM | 133% |
| O=C1Nc2cc(Cl)c(-c3ccc(N4CCOCC4)cc3)cc2C1=C(O)c1ccc(F)cc1 [Compound 36, 6-Chloro-3-[1-(4-fluoro-phenyl)-1-hydroxy-methylidene]-5-(4-morpholin-4-yl-phenyl)-1,3-dihydro-indol-2-one] | 380 nM | 153% |
| O=C1Nc2cc(Cl)c(-c3ccc(N4CCOCC4)cc3)cc2C1=C(O)c1ccccc1F [Compound 32, 6-Chloro-3-[1-(2-fluoro-phenyl)-1-hydroxy-methylidene]-5-(4-morpholin-4-yl-phenyl)-1,3-dihydro-indol-2-one] | 140 nM | 112% |
| Cc1cc(C(O)=C2C(=O)Nc3cc(Cl)c(-c4ccc(N5CCCC5)cc4)cc32)on1 [Compound 24, 6-Chloro-3-[1-hydroxy-1-(3-methyl-isoxazol-5-yl)-methylidene]-5-(4-pyrrolidin-1-yl-phenyl)-1,3-dihydro-indol-2-one] | 110 nM | 143% |
| COc1cc(C(O)=C2C(=O)Nc3cc(Cl)c(-c4ccc(N(C)C)nc4)cc32)on1 [Compound 146, 6-chloro-5-[6-(dimethylamino)-3-pyridyl]-3-[hydroxy-(3-methoxyisoxazol-5-yl)methylene]indolin-2-one] | 88 nM | 278% |
| Cc1cc(C(O)=C2C(=O)Nc3cc(Cl)c(-c4ccc(O)cc4)cc32)on1 [Compound 33, 6-Chloro-3-[1-hydroxy-1-(3-methyl-isoxazol-5-yl)-methylidene]-5-(4-hydroxy-phenyl)-1,3-dihydro-indol-2-one] | 390 nM | 120% |
| Cc1cc(C(O)=C2C(=O)Nc3cc(Cl)c(-c4ccc(N5CCN(C)CC5)cc4)cc32)on1 [Compound 74, 6-Chloro-3-[1-hydroxy-1-(3-methyl-isoxazol-5-yl)methylidene]-5-[4-(4-methyl-piperazin-1-yl)-phenyl]-1,3-dihydro-indol-2-one, hydrochloride] | 112 nM | 213% |
| COc1cc(C(O)=C2C(=O)Nc3cc(Cl)c(-c4cnc(N(C)C)nc4)cc32)on1 [Compound 145, 6-chloro-5-[2-(dimethylamino)pyrimidin-5-yl]-3-[hydroxy-(3-methoxyisoxazol-5-yl)methylene]indolin-2-one] | 95 nM | 257% |
| COc1ccc(C(O)=C2C(=O)Nc3cc(Cl)c(-c4ccc(C5(CO)CC5)cc4)cc32)cc1F [Compound 88, 6-chloro-3-[(3-fluoro-4-methoxy-phenyl)hydroxy-methylene]-5-[4-[1-(hydroxymethyl)cyclopropyl]phenyl]indolin-2-one] | 0.6 nM and 0.4 nM | – |

More lines, in order of falling EC50, values ahead:

| EC50 | Emax | SMILES |
| --- | --- | --- |
| 30 nM | 149% | Cc1cc(C(O)=C2C(=O)Nc3cc(Cl)c(-c4ccc(OCC5CCO5)cc4)cc32)on1 (stereo not shown) [Compound 115, 6-chloro-3-[hydroxy-(3-methylisoxazol-5-yl)methylene]-5-[4-(oxetan-2-ylmethoxy)phenyl]indolin-2-one] |
| 16 nM | 271% | COc1cc(C(O)=C2C(=O)Nc3cc(Cl)c(-c4ccc(N5CCCC5)cc4)cc32)on1 [Compound 137, 6-chloro-3-[hydroxy-(3-methoxyisoxazol-5-yl)methylene]-5-(4-pyrrolidin-1-ylphenyl)indolin-2-one] |
| 15 nM | 155% | O=C1Nc2cc(Cl)c(-c3ccc(C4CC(O)C4)cc3)cc2C1=C(O)c1cc(F)cc(F)c1 (stereo not shown) [Compound 161, 6-chloro-3-[(3,5-difluorophenyl)hydroxy-methylene]-5-[4-(3-hydroxycyclobutyl)phenyl]indolin-2-one] |
| 9 nM | 373% | O=C1Nc2cc(Cl)c(-c3ccc(C4(CO)CC4)cc3)cc2C1=C(O)c1ccc(Cl)s1 [Compound 130, 6-chloro-3-[(5-chloro-2-thienyl)hydroxy-methylene]-5-[4-[1-(hydroxymethyl)cyclopropyl]phenyl]indolin-2-one] |
| 9 nM | 319% | COc1cc(C(O)=C2C(=O)Nc3cc(Cl)c(-c4ccc(C5CC(O)C5)cc4)cc32)on1 (stereo not shown) [Compound 135, 6-chloro-5-[4-(3-hydroxycyclobutyl)phenyl]-3-[hydroxy-(3-methoxyisoxazol-5-yl)methylene]indolin-2-one] |
| 6 nM | 170% | COc1cc(C(O)=C2C(=O)Nc3cc(Cl)c(-c4ccc(N5CCOCC5)c(F)c4)cc32)on1 [Compound 149, 6-chloro-5-(3-fluoro-4-morpholino-phenyl)-3-[hydroxy-(3-methoxyisoxazol-5-yl)methylene]indolin-2-one] |
| 6 nM | 161% | COc1ccc(C(O)=C2C(=O)Nc3cc(Cl)c(-c4ccc(N5CCOCC5)cc4)cc32)cn1 [Compound 151, 6-chloro-3-[hydroxy-(6-methoxy-3-pyridyl)methylene]-5-(4-morpholinophenyl)indolin-2-one] |
| 3 nM | 196% | COc1ccc(C(O)=C2C(=O)Nc3cc(Cl)c(-c4ccc(C5(CO)CC5)cc4)cc32)c(OC)c1 [Compound 163, 6-chloro-3-[(2,4-dimethoxyphenyl)hydroxy-methylene]-5-[4-[1-(hydroxymethyl)cyclopropyl]phenyl]indolin-2-one] |
| 2 nM | 191% | COc1ccc(C(O)=C2C(=O)Nc3cc(Cl)c(-c4ccc(N5CCOCC5)cc4)cc32)c(F)c1F [Compound 98, 6-chloro-3-[(2,3-difluoro-4-methoxy-phenyl)hydroxy-methylene]-5-(4-morpholinophenyl)indolin-2-one] |
| 2 nM | 129% | O=C1Nc2cc(Cl)c(-c3ccc(C4(CO)CC4)cc3)cc2C1=C(O)c1cccc(F)c1 [Compound 27, 6-Chloro-3-[1-(3-fluoro-phenyl)-1-hydroxy-methylidene]-5-[4-(1-hydroxymethyl-cyclopropyl)-phenyl]-1,3-dihydro-indol-2-one] |
| 2 nM | 124% | CC(C)(C)c1cc(C(O)=C2C(=O)Nc3cc(Cl)c(-c4ccc(C5(CO)CC5)cc4)cc32)on1 [Compound 76, 3-[1-(3-tert-Butyl-isoxazol-5-yl)-1-hydroxy-methylidene]-6-chloro-5-[4-(1-hydroxymethyl-cyclopropyl)phenyl]-1,3-dihydro-indol-2-one] |
| 1 nM | 172% | COc1cc(C(O)=C2C(=O)Nc3cc(Cl)c(-c4ccc(-c5cccc(OC)c5O)cc4)cc32)on1 [Compound 12] |
| 0.3 nM | 74% | CCOc1cc(C(O)=C2C(=O)Nc3cc(Cl)c(-c4ccc(-c5cccc(OC)c5O)cc4)cc32)on1 [Compound 105, 6-chloro-3-[(3-ethoxyisoxazol-5-yl)hydroxy-methylene]-5-[4-(2-hydroxy-3-methoxy-phenyl)phenyl]indolin-2-one] |
| 0.1 nM | 129% | COc1cccc(-c2ccc(-c3cc4c(cc3Cl)NC(=O)C4=C(O)c3cc(C4CC4)no3)cc2)c1O [Compound 117, 6-chloro-3-[(3-cyclopropylisoxazol-5-yl)hydroxy-methylene]-5-[4-(2-hydroxy-3-methoxy-phenyl)phenyl]indolin-2-one] |
